The values below come from ChEMBL document CHEMBL4145504, “Jatrophane diterpenoids from Euphorbia sororia as potent modulators against P-glycoprotein-based multidrug resistance” (Eur J Med Chem, 2018).

A value given as a limit tells only on which side of the number the result lay.

Data set [1] can be described thus: Cytotoxicity against human MCF7 cells assessed as cell survival at 10 uM after 48 hrs by MTT assay relative to control. It is filed as cell-based. The conditions noted are these: read-out: Survival.
Data set [2] has as its system MCF7. Description: Cytotoxicity against human MCF7 cells after 48 hrs by MTT assay. It is filed as cell-based. The settings on record: MCF7, 48 h.
Data set [3] relates to NCI/ADR-RES. Description: Cytotoxicity against human MCF7/ADR cells after 48 hrs by MTT assay. It is filed as cell-based.
Data set [4] can be described thus: Cytotoxicity against human MCF7/ADR cells assessed as cell survival at 10 uM after 48 hrs by MTT assay relative to control. The settings on record: MCF7/ADR cells (NCI/ADR-RES), read-out: Survival. It is filed as cell-based.
For data set [5], the species on record is Homo sapiens. Briefly: Inhibition of P-gp in human MCF7/ADR cells assessed as potentiation of doxorubicin-induced cytotoxicity at 10 uM after 48 hrs by MTT assay relative to control. It is filed as cell-based.
A short description of data set [6]: Inhibition of P-gp in human MCF7/ADR cells assessed as potentiation of doxorubicin-induced cytotoxicity after 48 hrs by MTT assay. The conditions noted are these: NCI/ADR-RES. It is filed as cell-based.
The subject of data set [7] is HEK293. Description: Cytotoxicity against HEK293 cells after 48 hrs by MTT assay. The class given is cell-based. The conditions noted are these: Homo sapiens, HEK293, 48 h.
The subject of data set [8] is P-gp. Description: Therapeutic index, ratio of IC50 for HEK293 cells to EC50 for inhibition of P-gp in human MCF7/ADR cells assessed as potentiation of doxorubicin-induced cytotoxicity. The class given is toxicity, cell-based. The settings on record: HEK293 cells (IC50) and MCF7/ADR cells (EC50).

Regarding `C=C1[C@H](OC(=O)C(C)C)[C@@H](OC(C)=O)[C@@H](OC(C)=O)C(C)(C)/C=C/[C@H](C)[C@H](O)[C@@]2(O)C[C@@](C)(OC(=O)C(C)C)[C@H](OC(C)=O)[C@@H]2[C@H]1OC(=O)c1ccccc1`, the viability at 48 h, 10 µM came to 88% in data set [1] and 91.1% in data set [4]. The IC50 was greater than 100 µM in data set [2], greater than 100 µM in data set [3] and 63.8 µM in data set [7]. Also, the fold change (FC) in data set [5] was found to be 20.6. For the same compound, the EC50 in data set [6] was 0.124 µM. Moreover, the selectivity ratio in data set [8] is 512.
As to `C=C1[C@H](OC(C)=O)[C@H]2[C@@H](OC(C)=O)[C@@H](C)C[C@]2(OC(C)=O)C(=O)[C@@H](C)/C=C/C(C)(C)C(=O)[C@H](OC(C)=O)[C@H]1OC(=O)C(C)C`, the viability at 48 h, 10 µM was determined as 91.9% in data set [1] and 96.2% in data set [4]. Moreover, the 50% inhibitory concentration (IC50) in data set [2] and in data set [3] was greater than 100 µM throughout. In addition, the fold change (FC) in data set [5] worked out at 9.99.
As to `CC(=O)O[C@H]1[C@@H](OC(C)=O)C(C)(C)[C@@H]2O[C@H]2[C@H](C)[C@H](OC(C)=O)[C@]2(O)[C@H]3[C@@H](OC(=O)c4ccccc4)[C@@](O)(CCC(=O)O[C@H]3[C@](C)(OC(C)=O)[C@H]2OC(C)=O)[C@@H]1OC(C)=O`, the viability at 48 h, 10 µM in data set [1] came to 94.9%; in data set [4] it was 93%. Also, the half-maximal inhibitory concentration (IC50) in data set [2] and in data set [3] was greater than 100 µM each time. Further, the fold change (FC) in data set [5] was found to be 0.69.
Consider `CC(=O)O[C@H]1[C@@H](OC(C)=O)C(C)(C)/C=C/[C@H](C)[C@@H](OC(C)=O)[C@@]2(O)C[C@@](C)(OC(C)=O)[C@@H]3OC(=O)CC[C@@](O)([C@@H]1OC(=O)C(C)C)[C@H](OC(=O)c1ccccc1)[C@@H]32`, for which the viability at 48 h, 10 µM in data set [1] is 93.2%; in data set [4], greater than 100%. For the same compound, the IC50 in data set [2] came to 83.2 µM; in data set [3] it was 93 µM; in data set [7], 53.4 µM. The fold change (FC) in data set [5] came out at 17.1. Besides, in data set [6], the EC50 is 0.145 µM. For the same compound, the selectivity ratio in data set [8] came out at 368.
In the case of `C=C1[C@H](OC(=O)C(C)C)[C@@H](OC(C)=O)[C@@H](OC(C)=O)C(C)(C)/C=C/[C@H](C)[C@H](OC(=O)c2ccccc2)[C@@]2(O)C[C@@](C)(OC(C)=O)[C@H](OC(C)=O)[C@@H]2[C@H]1OC(=O)C(C)C`, the viability at 48 h, 10 µM in data set [1] was found to be 94.3%; in data set [4], 94.5%. The IC50 in data set [2] and in data set [3] was greater than 100 µM throughout. For the same compound, the fold change (FC) in data set [5] turned out to be 10.
As for `CC(=O)O[C@H]1[C@@H](OC(C)=O)C(C)(C)/C=C/[C@H](C)[C@H](OC(C)=O)[C@@]2(O)C[C@@](C)(OC(C)=O)[C@H](O)[C@@H]2[C@H]2OC(=O)CC[C@@]2(OC(=O)c2ccccc2)[C@@H]1OC(=O)C(C)C`, the viability at 48 h, 10 µM in data set [1] is 98.5%; in data set [4], greater than 100%. The IC50 was 64.8 µM in data set [2], greater than 100 µM in data set [3] and 43.1 µM in data set [7]. Moreover, the fold change (FC) in data set [5] came to 13. Also, the EC50 in data set [6] was 0.125 µM. Moreover, in data set [8], the selectivity ratio was 346.
On to `C=C1[C@H](OC(=O)CC)[C@@H](OC(C)=O)[C@@H](OC(C)=O)C(C)(C)/C=C/[C@H](C)[C@H](OC(=O)c2ccccc2)[C@@]2(O)C[C@@](C)(OC(C)=O)[C@H](OC(C)=O)[C@@H]2[C@H]1OC(=O)C(C)C`, for which the values for the viability at 48 h, 10 µM in data set [1] and in data set [4] were 83.3% and 92.5%, respectively. For the same compound, the concentration for half-maximal inhibition (IC50) in data set [2] was greater than 100 µM; in data set [3] it was greater than 100 µM; in data set [7], 59.4 µM. Also, the fold change (FC) in data set [5] turned out to be 13.5. For the same compound, the EC50 in data set [6] was 0.136 µM. In addition, the selectivity ratio in data set [8] was 438.
On to `C=C1[C@H](OC(=O)C(C)C)[C@@H](OC(C)=O)[C@@H](OC(C)=O)C(C)(C)/C=C/[C@H](C)[C@H](OC(=O)c2ccccc2)[C@@]2(O)C[C@@](C)(OC(C)=O)[C@H](OC(C)=O)[C@@H]2[C@H]1OC(=O)c1ccccc1`, for which the viability at 48 h, 10 µM is 93.2% in data set [1] and 97.7% in data set [4]. In addition, the figures for the 50% inhibitory concentration (IC50) in data set [2], in data set [3] and in data set [7] were 53.9 µM, greater than 100 µM and 61.4 µM, respectively. Also, in data set [5], the fold change (FC) was 20.9. For the same compound, the EC50 in data set [6] was 0.0929 µM. The selectivity ratio in data set [8] worked out at 661.
Consider `C=C1[C@@H](OC(C)=O)[C@@H]2[C@H](OC(=O)c3ccccc3)[C@](C)(OC(=O)C(C)C)C[C@]2(OC(C)=O)C(=O)[C@H](C)/C=C/C(C)(C)[C@H](OC(C)=O)[C@H](OC(C)=O)[C@H]1OC(=O)C(C)C`, for which the viability at 48 h, 10 µM in data set [1] was determined as 92.3%; in data set [4], 91.2%. In addition, the IC50 is greater than 100 µM in data set [2], greater than 100 µM in data set [3] and 38.5 µM in data set [7]. For the same compound, in data set [5], the fold change (FC) was found to be 11.2. The concentration for a half-maximal effect (EC50) in data set [6] turned out to be 0.196 µM. Further, the selectivity ratio in data set [8] was found to be 196.
For the compound `C=C1[C@H](OC(=O)C(C)C)[C@@H](OC(C)=O)[C@@H](OC(C)=O)C(C)(C)/C=C/[C@H](C)[C@H](OC(=O)c2ccccc2)[C@@]2(O)C[C@@](C)(OC(C)=O)[C@H](OC(C)=O)[C@@H]2[C@H]1OC(=O)CC`, the viability at 48 h, 10 µM in data set [1] worked out at 93.3%; in data set [4] it was 92.8%. In addition, the IC50 in data set [2] is greater than 100 µM; in data set [3], greater than 100 µM; in data set [7], 67.2 µM. Also, the fold change (FC) in data set [5] was 12.5. In addition, in data set [6], the concentration giving a half-maximal response (EC50) was 0.178 µM. Further, the selectivity ratio in data set [8] is 378.
Regarding `C=C1[C@H](OC(=O)C(C)C)[C@@H](OC(C)=O)[C@@H](OC(C)=O)C(C)(C)/C=C/[C@H](C)C(=O)[C@@]2(O)C[C@@](C)(OC(C)=O)[C@H](OC(C)=O)[C@@H]2[C@H]1OC(=O)c1ccccc1`, the viability at 48 h, 10 µM in data set [1] is 92.4%; in data set [4], 90.3%. In addition, the 50% inhibitory concentration (IC50) in data set [2] and in data set [3] was greater than 100 µM throughout. For the same compound, the fold change (FC) in data set [5] came to 9.29.
Turning to `C=C1CCC(=O)C(C)(C)/C=C/[C@H](C)C(=O)[C@@]2(OC(C)=O)C[C@H](C)[C@H](O)[C@@H]2[C@H]1OC(=O)c1ccccc1`, the viability at 48 h, 10 µM in data set [1] was found to be 95.6%; in data set [4] it was 90.4%. The values for the IC50 in data set [2] and in data set [3] were 70.9 µM and 90.9 µM, respectively. In addition, in data set [5], the fold change (FC) came to 3.52.
As to `C=C1[C@H](OC(C)=O)[C@H]2[C@@H](OC(C)=O)[C@@H](C)C[C@]2(OC(C)=O)C(=O)[C@@H](C)/C=C/C(C)(C)C(=O)[C@H](OC(C)=O)[C@H]1OC(=O)CC`, the viability at 48 h, 10 µM came out at 85.6% in data set [1] and 94.8% in data set [4]. Also, the IC50 in data set [2] and in data set [3] was greater than 100 µM throughout. For the same compound, in data set [5], the fold change (FC) was 6.65.
Take `C=C1[C@H](OC(=O)C(C)C)[C@@H](OC(C)=O)[C@@H](OC(C)=O)C(C)(C)/C=C/[C@H](C)[C@H](OC(C)=O)[C@@]2(O)C[C@@](C)(OC(C)=O)[C@H](OC(C)=O)[C@@H]2[C@H]1OC(=O)c1ccccc1`: the viability at 48 h, 10 µM was 94.6% in data set [1] and greater than 100% in data set [4]. The 50% inhibitory concentration (IC50) in data set [2] and in data set [3] was greater than 100 µM in each case. In addition, the fold change (FC) in data set [5] came to 10.2.
